Experimental findings from patent US20200370088A1, “KIT AND METHOD FOR ANTIBIOTICS SUSCEPTIBILITY TESTING WITH THE AGAR DILUTION METHOD” ([…].R.L., priority 2019, published 2020) are described below.

The subject of the assay is test bacteria. The assay is described as follows: Agar dilution MIC test in 12-well agarized panel (FIG. 2A-E). The format is cell-based. As to conditions: for MIC: agar dilution test. The procedure:
In alternative embodiments, the MIC in agar is determined by the steps of inoculating a suspension of the bacterium to be tested in a plurality of agarized wells with serial two-fold dilutions of antibiotic. The test bacteria are inoculated on the agarized wells. These inoculated wells are incubated at 35-37° C. overnight. The MIC is defined as the minimum antibiotic concentration that yielded complete inhibition of the bacteria on the wells. The steps are illustrated in FIG. 1 and FIGS. 2a-2e.
In alternative embodiments of methods as provided herein different bacterial strains such as Staphylococcus spp., Enterococcus spp., Enterobactariaceae and corresponding mixtures can be inoculated onto the surface of the agarized wells prepared according to Ref. (1) and containing various concentrations of antibiotic. The inoculated wells are incubated at about 35-37° C. for a fixed time, or in alternative embodiment for about 15-24 hours. Depending on the concentration of the antibiotic, bacterial growth results and is clearly visible on the wells. Generally, in the wells having the high concentration of antibiotic, the antibiotic inhibits the bacterial growth while on the wells having low antibiotic concentrations distinctly visible and typical growth is observed. The lowest antibiotic concentration which serves to inhibit the growth of the bacteria on the wells is defined as the minimal inhibitory concentration (MIC).
With particular reference to the FIGS. 2a-2e, the therein illustrated kit is a 12-well panel containing the antibiotic incorporated into an agar medium in different concentrations, i.e. 11 two-fold dilutions (0.25-256 μg/ml). The procedure used to carry out the test is the agar dilution (AD)method for the antimicrobial susceptibility testing of the antibiotic and is according to the one recommended by CLSI and EUCAST (Ref. 1-4) standards but in a simpler and less time-consuming way and with highly reproducible results.
All wells are inoculated with a standardized microbial suspension.
After incubation in thermostat (as described in the following paragraph, for example at 36±2° C. for 16-20 hours in ambient air) the result is read and interpreted.
Test Procedure • Take a panel from its envelope and leave it at room temperature for 10 min. • Prepare a suspension of the test organism using either the direct colony suspension or growth method. • Standardize the suspension to the density of a McFarland 0.5 standard. • Optimally within 15 min of preparation, dilute the adjusted suspension 1:10 in saline. • Dispense 2 μl of the inoculum solution over the agar surface (*) into each well (the final inoculums concentration should be approximately 10^4 CFU per spot). […]
At the end of the incubation period observe the growth in the wells and establish the MIC, i.e. the lowest concentration of antibiotic that inhibits visible growth.
Disregard single colonies or faint haze caused by the inoculum

Converted amounts (≈) assume the structure as drawn.

A word on the MIC: it is the least concentration at which growth counts as inhibited. A high value points to weaker potency. Regarding `C[C@@H]1O[C@@H]1P(=O)(O)O` [fosfomycin], the MIC was 64 µg/mL (≈ 464 µM) (48 h, FIG. 2d); 0.5 µg/mL (≈ 3.62 µM) (FIG. 2a); 16 µg/mL (≈ 116 µM) (FIG. 2b); 2 µg/mL (≈ 14.5 µM) (FIG. 2c). Besides, the “growth observed in well” value (FIG. 2E, at 1 μg/ml) is “faint haze”.
